Reference: patent US10273228B2, “Hepatitis B viral assembly effectors” (Indiana University Research and Technology Corporation, priority 2015, dated 2019)

How the values were obtained:
[1] = test system: HBV viral load, AD38 cells; assay: Activity of test compounds on viral production from AD38 cells (viral load by quantitative PCR of the core sequence in supernatant); assay type: cell-based, Hepatitis B virus; details: Hepatitis B virus, 144 h, 10 μM compound, 6 days at 37° C., vs DMSO control wells; Table 6; read-out: AD38 Viral Load (CpAM/DMSO %) at 10 μM
Procedure: (§1) AD38 cells were then re-suspended with 10 mL of treatment medium and counted. Wells of a collagen coated 96-well NUNC microtiter plate were seeded at 50,000/well in 180 μL of treatment medium, and 20 μL of either 10% DMSO (Control) or a 10× solution of test compound in 10% DMSO in treatment media was added for a final compound concentration 1, 3, or 10 μM (1.0% final [DMSO]) and plates were incubated for 6 days at 37° C.
Subsequently viral load production was assayed by quantitative PCR of the core sequence. Briefly, 5 μL of clarified supernatant was added to a PCR reaction mixture that contained forward primers HBV-f 5′-CTGTGCCTTGGGTGGCTTT-3′, Reverse primers HBV-r 5′-[…]-3′ and Fluorescent TaqMan™ Probes HBV-probe 5′-FAM/AGCTCCAAA/ZEN/[…]/3IABkFQ-3′ in Quanta Biosciences PerfeCTa® qPCR Toughmix®, and was subsequently on an Applied Biosystems VIIA7 in a final volume of 20 μL. The PCR mixture was incubated at 45° C. for 5 minutes, then 95° C. for 10 min, followed by 40 cycles of 10 seconds at 95° C. and 20 seconds at 60° C. Viral load was quantitated against known standards by using ViiA™ 7 Software. Viral load in the supernatant from wells with treated cells were compared against viral load in supernatant from DMSO control wells (≥3 per plate).

[2] = test system: AD38 cells; assay: AD38 viability normalized to DMSO control; assay type: cell-based; details: 10 μM compound, vs DMSO control; Table 6
Procedure: as §1

| SMILES | activity at 10 µM [1] | AD38 Viability Normalized Result (CPAM/DMSO %) at 10 μM [2] |
| --- | --- | --- |
| Cc1ccc(Nc2cc(C)nc(N3CCN(S(=O)(=O)c4cccnc4)CC3)n2)cc1 [Compound 1133] | 35% | 108% |
| Cc1ccc(Nc2cc(C)nc(N3CCN(S(=O)(=O)c4c[nH]cn4)CC3)n2)cc1 [Compound 1134] | 32% | 123% |
| Cc1ccc(Nc2cc(C)nc(N3CCN(S(=O)(=O)c4cccc5ccccc45)CC3)n2)cc1 [Compound 1135] | 16% | 107% |
| Cc1ccc(Nc2cc(C)nc(N3CCN(S(=O)(=O)c4ccc(Oc5ccccc5)cc4)CC3)n2)cc1 [Compound 1136] | 24% | 113% |
| COc1ccc(S(=O)(=O)N2CCN(c3nc(Nc4ccc(C)cc4)cc(N(C)C)n3)CC2)cc1 [Compound 1143] | 8% | 107% |
| COc1ccc(S(=O)(=O)N2CCN(c3nc(Nc4ccc(C)cc4)cc(N4CCCC4)n3)CC2)cc1 [Compound 1144] | 12% | 100% |
| Cc1ccc(Nc2cc(C)nc(N3CCN(S(=O)(=O)c4cccs4)CC3)n2)cc1 [Compound 1146] | 15% | 106% |
| COc1ccc(S(=O)(=O)N2CCN(c3cc(C)nc(Nc4ccc(C)cc4)n3)CC2)cc1 [Compound 1150] | 4% | 89% |
| COc1cccc(S(=O)(=O)N2CCN(c3cc(C)nc(Nc4ccc(C)cc4)n3)CC2)c1 [Compound 1151] | 1% | 73% |
| COc1ccc(S(=O)(=O)N2CCN(c3nc(C)cc(Oc4ccc(C)cc4)n3)CC2)cc1 [Compound 1152] | 20% | 107% |
| Cc1ccc(Nc2cc(C)nc(N3CCN(S(=O)(=O)c4ccccc4C)CC3)n2)cc1 [Compound 1153] | 21% | 109% |
| COc1ccc(S(=O)(=O)N2CCN(c3nc(Nc4ccc(C)cc4)cc(OC)n3)CC2)cc1 [Compound 1157] | 35% | 96% |
| COc1ccc(S(=O)(=O)N2CCN(c3cccc(Nc4ccc(C)cc4)n3)CC2)cc1 [Compound 1158] | 51% | 92% |
| COc1ccc(S(=O)(=O)N2CCN(c3nc(C)cc(Sc4ccc(C)cc4)n3)CC2)cc1 [Compound 1159] | 81% | 95% |
| COc1ccc(S(=O)(=O)N2CCN(c3nc(C)cc(S(=O)(=O)c4ccc(C)cc4)n3)CC2)cc1 [Compound 1160, 2-(4-((4-methoxyphenyl)sulfonyl)piperazin-1-yl)-4-methyl-6-tosylpyrimidine] | 60% | 110% |
| Cc1ccc(Nc2cc(C)nc(N3CCN(S(=O)(=O)c4ccc5[nH]c(=O)[nH]c5c4)CC3)n2)cc1 [Compound 1167] | 36% | 108% |
| COc1cccc(S(=O)(=O)N2CCN(c3cccc(Nc4ccc(C)cc4)n3)CC2)c1 [Compound 1168] | 51% | 100% |
| COc1ccc(S(=O)(=O)N2CCN(c3cc(C)cc(Nc4ccc(C)cc4)n3)CC2)cc1 [Compound 1172] | 21% | 107% |
| COc1cccc(S(=O)(=O)N2CCN(c3cc(C)cc(Nc4ccc(C)cc4)n3)CC2)c1 [Compound 1173] | 9% | 105% |
| COc1ccc(S(=O)(=O)N2CCN(c3nc(Nc4ccc(C)cc4)cc(N4CCOCC4)n3)CC2)cc1 [Compound 1179] | 45% | 103% |
| COc1ccc(S(=O)(=O)N2CCN(c3nc(C)cc(Nc4cncnc4)n3)CC2)cc1 [Compound 1186] | 76% | 106% |
| COc1ccc(S(=O)(=O)N2CCN(c3nc(C)cc(Nc4ccc5ccccc5c4)n3)CC2)cc1 [Compound 1188] | 52% | 105% |
| COc1ccc(S(=O)(=O)N2CCN(c3nc(Nc4ccc(C)cc4)cc(N4CCCCC4)n3)CC2)cc1 [Compound 1190] | 72% | 83% |
| COc1ccc(S(=O)(=O)N2CCN(c3nc(C)cc(Nc4ccc(C)nc4)n3)CC2)cc1 [Compound 1194] | 64% | 109% |
| COc1ccc(S(=O)(=O)N2CCN(c3nc(C)cc(Nc4ccc(C)cn4)n3)CC2)cc1 [Compound 1200] | 81% | 98% |

| SMILES | activity at 10 µM [1] | AD38 Viability Normalized Result (CPAM/DMSO %) at 10 μM [2] |
| --- | --- | --- |
| COc1ccc(S(=O)(=O)N2CCN(c3nc(C)cc(Nc4ccc(-c5ccccc5)cc4)n3)CC2)cc1 [Compound 1201] | 90% | 101% |
| COc1ccc(S(=O)(=O)N2CCN(c3nc(Nc4ccc(C)cc4)cc(N4CCNCC4)n3)CC2)cc1 [Compound 1202, 2-(4-((4-methoxyphenyl)sulfonyl)piperazin-1-yl)-6-(piperazin-1-yl)-N-(p-tolyl) pyrimidin-4-amine] | 51% | 106% |
| COc1ccc(S(=O)(=O)N2CCN(c3nc(Nc4ccc(C)cc4)cc(N4CCN(C)CC4)n3)CC2)cc1 [Compound 1207] | 83% | 0% |
| COc1ccc(S(=O)(=O)N2CCN(c3nc(Nc4ccc(C)cc4)cc(N4CCCC4=O)n3)CC2)cc1 [Compound 1212] | 77% | 94% |
| COc1ccc(S(=O)(=O)N2CCN(c3nc(Nc4ccc(C)cc4)cc(N4CCCCC4=O)n3)CC2)cc1 [Compound 1213] | 40% | 94% |
| COc1ccc(S(=O)(=O)N2CCN(c3nc(C)cc(Nc4ccccn4)n3)CC2)cc1 [Compound 1215] | 93% | 89% |
| COc1ccc(S(=O)(=O)N2CCN(c3nc(Nc4ccc(C)cc4)cc(-n4ccnc4)n3)CC2)cc1 [Compound 1229] | 13% | 92% |
| COc1ccc(S(=O)(=O)N2CCN(c3nc(Nc4ccc(C)cc4)cc(-n4cncn4)n3)CC2)cc1 [Compound 1230] | 0% | 95% |
| COc1ccc(S(=O)(=O)N2CCN(c3nc(Nc4ccc(C)cc4)cc(NC(C)C)n3)CC2)cc1 [Compound 1231] | 45% | 94% |
| COc1ccc(S(=O)(=O)N2CCN(c3nc(NCCO)cc(Nc4ccc(C)cc4)n3)CC2)cc1 [Compound 1232] | 83% | 96% |
| COc1ccc(S(=O)(=O)N2CCN(c3nc(C)cc(Nc4nccs4)n3)CC2)cc1 [Compound 1233] | 87% | 95% |
| COc1ccc(S(=O)(=O)N2CCN(c3nc(C)cc(Nc4cccnc4)n3)CC2)cc1 [Compound 1234] | 82% | 101% |
| Cc1ccc(Nc2cc(C)nc(N3CCN(S(=O)(=O)c4cn[nH]c4)CC3)n2)cc1 [Compound 1238] | 26% | 102% |
| Cc1ccc(S(=O)(=O)N2CCN(c3nc(Nc4ccc(F)cc4)cc(-n4cnnc4)n3)CC2)cc1 [Compound 1316] | 25% |  |
| Cc1cc(Nc2ccc(C#N)cc2)nc(N2CCN(S(=O)(=O)c3ccc(F)cc3)CC2)n1 [Compound 1319] | 5% |  |
| N#Cc1ccc(Nc2cc(C(F)(F)F)nc(N3CCN(S(=O)(=O)c4ccc(C(F)(F)F)cc4)CC3)n2)cc1 [Compound 1320] | 18% |  |
| Cc1ccc(S(=O)(=O)N2CCN(c3nc(C)cc(Nc4ccc(C#N)cc4)n3)CC2)cc1 [Compound 1321] | 1% |  |
| Cc1cc(Nc2ccc(C#N)cc2)nc(N2CCN(S(=O)(=O)c3ccc(C(F)(F)F)cc3)CC2)n1 [Compound 1322] | 35% |  |
| Cc1ccc(S(=O)(=O)N2CCN(c3nc(Nc4ccc(C#N)cc4)cc(C(F)(F)F)n3)CC2)cc1 [Compound 1324] | 1% |  |
| N#Cc1ccc(Nc2cc(C(F)(F)F)nc(N3CCN(S(=O)(=O)c4ccccc4)CC3)n2)cc1 [Compound 1325] | 1% |  |
| N#Cc1ccc(Nc2cc(C(F)(F)F)nc(N3CCN(S(=O)(=O)c4ccc(F)cc4)CC3)n2)cc1 [Compound 1326] | 2% |  |
| Cc1cc(Nc2ccc(C#N)cc2)nc(N2CCN(S(=O)(=O)c3ccccc3)CC2)n1 [Compound 1327] | 1% |  |
| Cc1cc(Nc2ccc(C#N)cc2)nc(N2CCN(S(=O)(=O)c3ccc(O)cc3)CC2)n1 [Compound 1328] | 9% |  |
| COc1ccc(S(=O)(=O)N2CCN(c3nc(Nc4ccc(C#N)cc4)cc(C(F)(F)F)n3)CC2)cc1 [Compound 1329] | 1% |  |
